Experiments:
[1] = test system: CD3+ CD4+ T-helper cells of AIHA patients; test: Flow cytometry of CD3, CD4 and intracellular cytokines in PBMC from AIHA patients; assay type: cell-based, human; conditions: AIHA patient; for CD3+ CD4+ population of T-helper cells: FIGS. 23A to 23D; for CD4+ T-helper cells expressing intracellular IFN-γ: FIGS. 23E to 23H
Protocol: The secretion of cytokines identified in Example 1.3 by T-helper cells is confirmed by flow cytometery analysis. Simultaneous measurement of surface molecules CD3 and CD4 and intracellular cytokines IFN-γ or IL-10 was carried out using three colour flow cytometry analysis in PBMC, isolated from RhD-alloimmunised donors, cultured with either no antigen or RhD peptide for five days after stimulation. All analysis was carried out using Expo v2 analysis software (applied Cytometry Systems). The CD3+ T-cells were gated open and the numbers of IFN-γ+ and CD4+ cells were assessed. In all donors tested there was a significant increase in the proportion of CD4+ IFN-γ+CD3+ T-cells to at least one of the RhD peptides tested. In the representative example shown in FIGS. 12A to 12L it can be seen that the proportion of CD4+ IFN-γ+cells was 4.2% in unstimulated cultures (FIG. 12E). […] The IL-10 and CD4+ expression was also assessed on CD3+ gated population of T-cells. In PBMC cultures isolated from the alloimmune donor shown, there was an increase in the proportion of CD4+ IL-10+T-cells from 2.4% in unstimulated PBMC cultures (FIG. 12I) to 6.5% in culture stimulated with RhD peptide 13 (FIG. 12J) to 6.2% in cultures stimulated with RhD peptide 17 (FIG. 12K) and 5.9% with RhD peptide 28 (FIG. 12L).
The secretion of cytokines identified in Example 2.3 by T-cells is confirmed utilising the experiments mentioned in Example 1.4, which were repeated using PBMC isolated from patients with AIHA.

HLA-DR15 transgenic mice = test: Tolerisation in vivo to RhD protein in HLA-DR15 transgenic mice; conditions: peptide parenteral (subcutaneous) before RhD immunisation
Protocol: HLA-DR15 transgenic mice were immunised twice with 2 mg/ml purified RhD protein. The first subcutaneous injection was followed 14 days later by an intraperitoneal injection. Mice were sacrificed 14 days after the final injection. The spleen was removed and blood collected by cardiac puncture.
Fourteen days before RhD immunisation (as above) 25 μl of 2 mg/ml soluble RhD peptides were administered by the intranasal route.
Fourteen days before RhD immunisation (as above) 25 μl of 2 mg/ml soluble RhD peptides were administered by the subcutaneous route.
Splenocytes were homogenised and a single cell suspension was isolated over 40 μm mesh filters (Becton Dickinson) and resuspended to 1.25×10^6 cells/ml in the Alpha Modification of Eagle's Medium (ICN Flow, Bucks UK) supplemented with 5% autologous serum, 4 mM L-Glutamine (Gibco, Paisley, UK), 100 U/ml sodium benzylpenicillin G (Sigma), 100 μg/ml streptomycin sulphate (Sigma), 5×10^−5 2-mercaptoethanol (Sigma) and 20 mM HEPES pH7.2 (Sigma). All plates were incubated at 37° C. in a humidified atmosphere of 5% CO2/95% air. The cell proliferation in cultures was estimated from the incorporation of ^3H-thymidine (Amersham) in triplicate wells 5 days after stimulation with antigen. Proliferation results are presented either as the mean CPM±SD of the triplicate samples, or as a stimulation index (SI) expressing the ratio of mean CPM in stimulated versus unstimulated control cultures. An SI>3 with CPM>500 is interpreted as representing a positive response.
Round bottomed microtitre plates (Nunc, Roskilde, Denmark) were blocked in phosphate buffered saline pH 7.4 (PBS) containing 0.2% bovine serum albumin (BSA), before addition of 50 μl 2% v/v washed human D-positive RBC. Test sera were incubated at 50 μl per well with triplicate RBC samples for 1 hour at 37° C. and washed three times in PBS-BSA before fixing for 30 minutes in 0.15% glutaraldehyde (Sigma, Dorset, UK) to prevent lysis of the cells in the alkaline conditions required later in the test. The fixed RBC were transferred to fresh, pre-blocked, 96-well plates and washed before incubation with 50 μl per well 1 μg/ml goat anti-mouse IgG γ-chain specific antibody (Sigma) or goat anti-mouse IgM μ-chain specific antibody (Sigma) for 1 hour at 37° C. After washing, the plates were incubated with 50 μl per well 1 μg/ml rabbit anti-goat IgG alkaline phosphatase (Sigma) for 1 hour at 37° C., washed, and 100 μl of phosphatase substrate solution was then incubated in each well for 1 hour at 37° C. After pelleting of the RBC by centrifugation, 50 μl of each supernatant was transferred into the wells of fresh, flat-bottomed microtitre plates (Nunc) and the absorbance measured at 405 nm, with 492 nm as a reference, using a multiscan plate reader (Labsystems, Basingstoke, UK). Each result is expressed as the mean of triplicate wells. Inter-assay variation was controlled for by including previously tested RBC samples on each plate.
It is known from other animal models (Elson C J & Barker R N. Helper T-cells in antibody mediated, organ specific autoimmunity. Curr Opin Immunol, 2000; 12:664-669) that mucosal administration of immunodominant peptides which induce an immune response when given with adjuvant by the parenteral route will inhibit responsiveness, and induce antigen specific tolerance. To test the effectiveness of peptides containing immunodominant allo-RhD helper epitopes in preventing antibody response to the RhD protein, HLA-DR15 transgenic mice were used for the in vivo testing of these peptides as most alloimmunised donors responding to RhD bear this MHC class II allele.

PBMC from AIHA patients = test: celELISA of cytokine production by PBMC from AIHA patients; assay type: cell-based, human; conditions: AIHA patient (AIHA26); FIG. 24A
Protocol: Cultured T-cells are stimulated with each of the epitopes given in Table 1 and after 5 days the responding cells were transferred to flat-bottomed microtitre plates (96-well Nunc-Immuno Maxisorp) coated with […] per well of monoclonal anti-cytokine capture antibody diluted in 0.05M alkaline carbonate coating buffer pH 9.6. Unbound capture antibody was removed by two washes with HBSS and non-specific binding potential blocked by incubation with 200 μl per well of phosphate buffered saline, pH 7.4 (PBS containing 3% BSA). […]
After six washes with 0.5% Tween/PBS, 100 μl of 1:100,000 ExtrAvidin-alkaline phosphatase conjugate (Sigma) was then added to each of the wells and incubated at room temperature for 30 minutes. […] The absorbance at 405 nm was then measured using a Multiscan plate reader (Labsystems Basingstoke UK).
Cytokine secretion was measured by interpolation from a standard curve generated by incubating duplicate wells with doubling dilutions of recombinant human IFN-γ or IL-10 or TGF-β (Pharmingen). The standard curves were modelled by a smoothed cubic spline function applied to the absorbance reading and the cytokine concentrations after a quasilogarithmic transformation, where: quasiloge(z)=loge[z+{square root}[z^2+1]). […]

| Sequence | CD3+ CD4+ population of T-helper cells [1] | CD4+ T-helper cells expressing intracellular IFN-γ [1] | RhD-specific proliferation by splenocytes after prior tolerisation (HLA-DR15 transgenic mice) | serum anti-human RBC antibody, rr red blood cells (HLA-DR15 transgenic mice) | CD3+ CD4+ T helper cells expressing intracellular IL-10 ([1]; FIGS. 24B to 24E) | IL-10 production by PBMC (PBMC from AIHA patients) |
| --- | --- | --- | --- | --- | --- | --- |
| GALFLWMFWPSFNSA (Residue 212-226 RhD; listed as Homo sapiens) [compound 35] | expansion of a CD3+ CD4+population of T-helper cells | expansion of CD4+ T-helper cells that express intracellular IFN-γ |  |  |  |  |
| VGAGNGMIGFQVLLS (Residue 352-366 RhD; listed as Homo sapiens) [compound 60] | expansion of a CD3+ CD4+population of T-helper cells | expansion of CD4+ T-helper cells that express intracellular IFN-γ | reduced T-cell response to RhD protein | no change |  |  |
| WMFWPSFNSALLRSP (Residue 217-231 RhD; listed as Homo sapiens) [compound 36] |  |  |  |  | expansion of a CD3+ CD4+population of T helper cells | induces the production of IL-10 |

Reference: US20050069544A1, “Pharmaceutical composition and a method of treatment” (priority 1998, published 2005)
